{"source": "patent US6562243B2", "about": "(priority 2001, dated 2003)", "origin": "cited, not measured here", "system": "Legionella"}
{"smiles": "[Ag]", "note": "[silver]", "values": [{"measurement": "silver level that kills Legionella", "value": 20, "unit": "ppb"}]}
